Measurements reported in US20060198904A1, “Methods for inhibiting allergic inflammation and other responses initiated by pollens, molds, and other non-animal derived allergens” (priority 2002, published 2006).
Like-named read-outs stand apart in the source and are kept apart here.

Tests used:
[1] = test system: lung-(NCI-H292) and kidney-(MDCK) derived epithelial cells; assay: Intracellular ROS (H2DCF-DA) in other epithelial cells; assay type: cell-based; details: pre-treatment of epithelial cells, NAC 1 mM, FIG. 2B
Protocol: Cell Lines. Cells were obtained from the ATCC (A549, NCI-H292 and MDCK), or Cambrex Bio Science (Walkersville, Md.) (NHBE). Cells were maintained in humidified CO2 (5%) incubator and medium as recommended by the suppliers. Measurements of Reactive Oxygen Species. Epithelial cells (A549, NCI-H292, NHBE, and MDCK) were “loaded” with 50 μM H2DCF-DA (Molecular Probes, Eugene, Oreg.) at 37° C. for 15 minutes. After washing out excess probe, cells were treated with various allergenic extracts with or without NADPH (100 μM), NAC (1 mM), or NADPH oxidase inhibitors: quinacrine (500 μM) and diphenylene iodonium (100 μM). The change in fluorescence intensity was assessed in a FLx800 micro plate reader (Bio-Tek Instruments, Winooski, Vt.), or by flow cytometry (FACScan, Becton Dickinson, Franklin Lakes, N.J.) at 488 nm excitation and 530 nm emission. Each data point represents the mean fluorescence from three or more independent experiments, and is expressed ±s.e.m.

[2] = test system: NADPH oxidase; assay: NBT assay (reduction of NBT to formazan); assay type: biochemical, ragweed (Ambrosia artemisiifolia)
Protocol: NBT Assay. […]. Mixtures were then incubated for 15 min at 37° C., and the sedimented formazan was dissolved in methanol. The absorbance was determined at 530 nm in a spectrophotometer (DU 530, Beckman Instruments, Fullerton, Calif.).

[3] = test system: normal human bronchial epithelial (NHBE) cells; assay: Intracellular ROS (H2DCF-DA) in cultured NHBE cells; assay type: cell-based; details: quinacrine 500 μM, diphenylene iodonium 100 μM, FIG. 2A
Protocol: Cell Lines. Cells were obtained from the ATCC (A549, NCI-H292 and MDCK), or Cambrex Bio Science (Walkersville, Md.) (NHBE). Cells were maintained in humidified CO2 (5%) incubator and medium as recommended by the suppliers.
Measurements of Reactive Oxygen Species. Epithelial cells (A549, NCI-H292, NHBE, and MDCK) were “loaded” with 50 μM H2DCF-DA (Molecular Probes, Eugene, Oreg.) at 37° C. for 15 minutes. After washing out excess probe, cells were treated with various allergenic extracts with or without NADPH (100 μM), NAC (1 mM), or NADPH oxidase inhibitors: quinacrine (500 μM) and diphenylene iodonium (100 μM). The change in fluorescence intensity was assessed in a FLx800 micro plate reader (Bio-Tek Instruments, Winooski, Vt.), or by flow cytometry (FACScan, Becton Dickinson, Franklin Lakes, N.J.) at 488 nm excitation and 530 nm emission. Each data point represents the mean fluorescence from three or more independent experiments, and is expressed ±s.e.m.

[4] = test system: superoxide anions (O2.^−); assay: Cytochrome c assay for detecting O2.− generation; assay type: biochemical, ragweed (Ambrosia artemisiifolia); details: SOD 50 U/ml added to pRWE^NOX+NADPH+Cyt c
Protocol: Cytochrome c Assay for Detecting O2.^− Generation. The method described by Messner and Imaly was used. The assay was carried out in PBS with 10 μg pRWE and 10 μM oxidized cytochrome c (Sigma-Aldrich) in the reaction mixture. The reactions were started by adding 100 μM NADPH, and the increase in A550 nm was recorded for 5 min. Saturating amounts of SOD 9(50 U/ml, Sigma-Aldrich) were used in a reference reaction to determine any such O2.^− independent reduction of cytochrome c by the sample.

Row | Molecule | effect on extract-induced elevation in ROS levels [3] | NBT reducing activity of pRWE^NOX in presence of the agent ([2]; pRWE^NOX, FIG. 1A) | also measured
1 | CC(=O)N[C@@H](CS)C(=O)O [N-acetyl-L-cysteine] |  |  | effect on RWE-induced increase in intracellular ROS levels [1]: inhibited; effect on RWE-induced increase in intracellular ROS levels ([1]; listed as NAC): inhibits
2 | [N-]=[N+]=[N-].[Na+] [azide, sodium azide] |  |  | NBT reducing activity of pRWE^NOX in presence of the agent [2]: resistant
3 | c1ccc2c(c1)[I+]c1ccccc1-2 [diphenyleneiodonium] | inhibited | inhibited | 
4 | CCN(CC)CCCC(C)Nc1c2ccc(Cl)cc2nc2ccc(OC)cc12 (centres unmarked) [quinacrine] | inhibited | inhibited | 
5 | superoxide dismutase |  |  | effect on the pRWE^NOX-induced increase in absorbance at 550 nm [4]: abrogated
